From US20220105150A1, “AMPHIPATHIC ALPHA-HELICAL ANTIMICROBIAL PEPTIDES TREAT INFECTIONS BY GRAM-NEGATIVE PATHOGENS” (priority 2019, published 2022)
Square brackets hold non-standard residues; d marks the D form. dOrn = NCCC[C@@H](N)C(=O)O; Dap = NC[C@H](N)C(=O)O

Assays:
[1] = tested on: A. baumannii strains from JMI Laboratories; conditions: 20 A. baumannii isolates from JMI Laboratories; cited from earlier work
[2] = tested on: Acinetobacter baumannii strains resistant to Polymyxin B and Colistin; conditions: results provided by MERCK, cited from earlier work; for MICGM: geometric mean over seven strains; for MIC MB9941: strain MB9941; for MIC MB9949: strain MB9949; for MIC MB9951: strain MB9951; for MIC MB9952: strain MB9952; for MIC MB9953: strain MB9953; for MIC MB9955: strain MB9955; for MIC MB9963: strain MB9963
serum proteins = experiment: cell-based or functional assay
[3] = target: the molecule itself; experiment: RP-HPLC temperature profiling, self-association (dimerization/oligomerization) against random coil control RC

## CO/N=C(\C(=O)N[C@@H]1C(=O)N2C(C(=O)[O-])=C(C[N+]3(C)CCCC3)CS[C@H]12)c1csc(N)n1 [Cefepime]
[1]
  number of resistant isolates out of the number of isolates screened: 18/20

## Ceftazidime-avibactam
[1]
  number of resistant isolates out of the number of isolates screened: 17/20

## Polymyxin B
[2]
  MICGM: >25 µM
  MIC MB9941: >25 µM
  MIC MB9949: >25 µM
  MIC MB9951: >25 µM
  MIC MB9952: >25 µM
  MIC MB9953: >25 µM
  MIC MB9955: >25 µM
  MIC MB9963: >25 µM

## C[C@H]1[C@H](NC(=O)/C(=N\OC(C)(C)C(=O)O)c2csc(N)n2)C(=O)N1S(=O)(=O)O [Aztreonam]
[1]
  number of resistant isolates out of the number of isolates screened: 20/20

## Gentamicin
[1]
  number of resistant isolates out of the number of isolates screened: 18/20

## CC(C)(O/N=C(\C(=O)N[C@@H]1C(=O)N2C(C(=O)[O-])=C(C[n+]3ccccc3)CS[C@H]12)c1csc(N)n1)C(=O)O [Ceftazidime]
[1]
  number of resistant isolates out of the number of isolates screened: 17/20

## NC[C@H]1O[C@H](O[C@H]2[C@H](O)[C@@H](O[C@H]3O[C@H](CO)[C@@H](O)[C@H](N)[C@H]3O)[C@H](N)C[C@@H]2N)[C@H](N)C[C@@H]1O [Tobramycin]
[1]
  number of resistant isolates out of the number of isolates screened: 18/20

## Ampicillin-sulbactam
[1]
  number of resistant isolates out of the number of isolates screened: 17/20

## Colistin
[1]
  number of resistant isolates out of the number of isolates screened: 10/20
[2]
  MICGM: >28 µM
  MIC MB9941: >28 µM
  MIC MB9949: >28 µM
  MIC MB9951: >28 µM
  MIC MB9952: >28 µM
  MIC MB9953: >28 µM
  MIC MB9955: >28 µM
  MIC MB9963: >28 µM

## NCC[C@H](O)C(=O)N[C@@H]1C[C@H](N)[C@@H](O[C@H]2O[C@H](CN)[C@@H](O)[C@H](O)[C@H]2O)[C@H](O)[C@H]1O[C@H]1O[C@H](CO)[C@@H](O)[C@H](N)[C@H]1O [Amikacin]
[1]
  number of resistant isolates out of the number of isolates screened: 17/20

## C[C@@H](O)[C@H]1C(=O)N2C(C(=O)O)=C(S[C@@H]3CN[C@H](CNS(N)(=O)=O)C3)[C@H](C)[C@H]12 [Doripenem]
[1]
  number of resistant isolates out of the number of isolates screened: 17/20

## Piperacillin-tazobactam
[1]
  number of resistant isolates out of the number of isolates screened: 19/20

## C[C@@H](O)[C@H]1C(=O)N2C(C(=O)O)=C(S[C@@H]3CN[C@H](C(=O)N(C)C)C3)[C@H](C)[C@H]12 [Meropenem]
[1]
  number of resistant isolates out of the number of isolates screened: 17/20

## O=C(O)c1cn(C2CC2)c2cc(N3CCNCC3)c(F)cc2c1=O [Ciprofloxacin]
[1]
  number of resistant isolates out of the number of isolates screened: 15/20

B1: D87(Lys1-6Arg-1) (peptide)
peptide: Ac-[dK][dL][dR][dS][dL][dL][dR][dT][dL][dS][dR][dA][dK][dA][dA][dK][dL][dR][dT][dL][dL][dR][dA][dL][dS][dR]-NH2
SMILES: CC(=O)N[C@H](CCCCN)C(=O)N[C@H](CC(C)C)C(=O)N[C@H](CCCNC(=N)N)C(=O)N[C@H](CO)C(=O)N[C@H](CC(C)C)C(=O)N[C@H](CC(C)C)C(=O)N[C@H](CCCNC(=N)N)C(=O)N[C@@H](C(=O)N[C@H](CC(C)C)C(=O)N[C@H](CO)C(=O)N[C@H](CCCNC(=N)N)C(=O)N[C@H](C)C(=O)N[C@H](CCCCN)C(=O)N[C@H](C)C(=O)N[C@H](C)C(=O)N[C@H](CCCCN)C(=O)N[C@H](CC(C)C)C(=O)N[C@H](CCCNC(=N)N)C(=O)N[C@@H](C(=O)N[C@H](CC(C)C)C(=O)N[C@H](CC(C)C)C(=O)N[C@H](CCCNC(=N)N)C(=O)N[C@H](C)C(=O)N[C@H](CC(C)C)C(=O)N[C@H](CO)C(=O)N[C@H](CCCNC(=N)N)C(N)=O)[C@H](C)O)[C@H](C)O
notes: De novo designed 26-residue amphipathic alpha-helical antimicrobial peptide; Arg at 3, 7, 11, 18, 22, 26; Lys13/Lys16 specificity determinants; also called D87(6Arg-1); D87-6 Arg-1
Serum proteins
  MIC (µM) against A. baumannii strain 649 in 25% human serum (no serum: 0.7): 1.3 µM
[3]
  PA (self-association parameter): 5.9 min

B2: D85(K13A/K16A)-(Lys1-6Orn-1) (peptide)
peptide: Ac-[dK][dL][dOrn][dS][dL][dL][dOrn][dT][dL][dS][dOrn][dA][dA][dA][dA][dA][dL][dOrn][dT][dL][dL][dOrn][dA][dL][dS][dOrn]-NH2
SMILES: CC(=O)N[C@H](CCCCN)C(=O)N[C@H](CC(C)C)C(=O)N[C@H](CCCN)C(=O)N[C@H](CO)C(=O)N[C@H](CC(C)C)C(=O)N[C@H](CC(C)C)C(=O)N[C@H](CCCN)C(=O)N[C@@H](C(=O)N[C@H](CC(C)C)C(=O)N[C@H](CO)C(=O)N[C@H](CCCN)C(=O)N[C@H](C)C(=O)N[C@H](C)C(=O)N[C@H](C)C(=O)N[C@H](C)C(=O)N[C@H](C)C(=O)N[C@H](CC(C)C)C(=O)N[C@H](CCCN)C(=O)N[C@@H](C(=O)N[C@H](CC(C)C)C(=O)N[C@H](CC(C)C)C(=O)N[C@H](CCCN)C(=O)N[C@H](C)C(=O)N[C@H](CC(C)C)C(=O)N[C@H](CO)C(=O)N[C@H](CCCN)C(N)=O)[C@H](C)O)[C@H](C)O
notes: Control AMP without specificity determinants (Ala13/Ala16); also called D85(A13/A16-6Orn-1); D85(K13A/K16A-6 Orn-1)
[3]
  PA (self-association parameter): 28 min

B3: D105(K13A/K16A)-(Lys1-6Dap-1) (peptide)
peptide: Ac-[dK][dL][Dap][dS][dL][dL][Dap][dT][dL][dS][Dap][dA][dA][dA][dA][dA][dL][Dap][dT][dL][dL][Dap][dA][dL][dS][Dap]-NH2
SMILES: CC(=O)N[C@H](CCCCN)C(=O)N[C@H](CC(C)C)C(=O)N[C@@H](CN)C(=O)N[C@H](CO)C(=O)N[C@H](CC(C)C)C(=O)N[C@H](CC(C)C)C(=O)N[C@@H](CN)C(=O)N[C@@H](C(=O)N[C@H](CC(C)C)C(=O)N[C@H](CO)C(=O)N[C@@H](CN)C(=O)N[C@H](C)C(=O)N[C@H](C)C(=O)N[C@H](C)C(=O)N[C@H](C)C(=O)N[C@H](C)C(=O)N[C@H](CC(C)C)C(=O)N[C@@H](CN)C(=O)N[C@@H](C(=O)N[C@H](CC(C)C)C(=O)N[C@H](CC(C)C)C(=O)N[C@@H](CN)C(=O)N[C@H](C)C(=O)N[C@H](CC(C)C)C(=O)N[C@H](CO)C(=O)N[C@@H](CN)C(N)=O)[C@H](C)O)[C@H](C)O
notes: Control AMP without specificity determinants (Ala13/Ala16); also called D105(A13/A16-6Dap-1); D105(K13A/K16A-6 Dap-1)
Serum proteins
  MIC (µM) against A. baumannii strain 649 in 25% human serum (no serum: 0.8): 12.5 µM
  fold loss of antimicrobial activity in 25% human sera: 15 fold
[3]
  PA (self-association parameter): 18 min

B4: D105(Lys1-6Dap-1) (peptide)
peptide: Ac-[dK][dL][Dap][dS][dL][dL][Dap][dT][dL][dS][Dap][dA][dK][dA][dA][dK][dL][Dap][dT][dL][dL][Dap][dA][dL][dS][Dap]-NH2
SMILES: CC(=O)N[C@H](CCCCN)C(=O)N[C@H](CC(C)C)C(=O)N[C@@H](CN)C(=O)N[C@H](CO)C(=O)N[C@H](CC(C)C)C(=O)N[C@H](CC(C)C)C(=O)N[C@@H](CN)C(=O)N[C@@H](C(=O)N[C@H](CC(C)C)C(=O)N[C@H](CO)C(=O)N[C@@H](CN)C(=O)N[C@H](C)C(=O)N[C@H](CCCCN)C(=O)N[C@H](C)C(=O)N[C@H](C)C(=O)N[C@H](CCCCN)C(=O)N[C@H](CC(C)C)C(=O)N[C@@H](CN)C(=O)N[C@@H](C(=O)N[C@H](CC(C)C)C(=O)N[C@H](CC(C)C)C(=O)N[C@@H](CN)C(=O)N[C@H](C)C(=O)N[C@H](CC(C)C)C(=O)N[C@H](CO)C(=O)N[C@@H](CN)C(N)=O)[C@H](C)O)[C@H](C)O
notes: Designed 26-residue AMP; Lys13/Lys16 specificity determinants; also called D105(6Dap-1); D105-6 Dap-1
Serum proteins
  MIC (µM) against A. baumannii strain 649 in 25% human serum (no serum: 0.8): 3 µM
  fold change of MIC in 25% human sera against no serum: 4 fold
[3]
  PA (self-association parameter): 3.7 min
